Experimental data published in PubChem BioAssay AID330 (DTP/NCI, 2004).
Where “and” joins values, the source holds several entries; their conditions need not be identical. Identical values can stand only once. Inconclusive results and toxic doses are left out.

System: P388 leukemia ip, CD2F1 mice, survival T/C
Test: NCI In Vivo Anticancer Drug Screen. Data for tumor model P388 Leukemia (intraperitoneal) in CD2F1 (CDF1) mice
Settings: endpoint: median survival time, higher = longer survival
Method in brief: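 Mice carrying the transplanted tumor received test compound or vehicle. Survival was recorded in each group, and the value is the treated-group measurement divided by that of the vehicle-treated control group.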

[1] = dose: 50.0 mg/kg/injection, schedule: Q01DX005 (ip), vehicle: saline with Tween-80
[2] = dose: 100.0 mg/kg/injection, schedule: Q01DX005 (ip), vehicle: saline with Tween-80
[3] = dose: 200.0 mg/kg/injection, schedule: Q01DX005 (ip), vehicle: saline with Tween-80
[4] = dose: 100.0 mg/kg/injection, schedule: Q04DX003 (ip), vehicle: saline with Tween-80
[5] = dose: 200.0 mg/kg/injection, schedule: Q04DX003 (ip), vehicle: saline with Tween-80
[6] = dose: 50.0 mg/kg/injection, schedule: Q01DX009 (ip), vehicle: saline with Tween-80
[7] = dose: 100.0 mg/kg/injection, schedule: Q01DX009 (ip), vehicle: saline with Tween-80
[8] = dose: 200.0 mg/kg/injection, schedule: Q01DX009 (ip), vehicle: saline with Tween-80
[9] = dose: 60.0 mg/kg/injection, schedule: Q01DX005 (ip), vehicle: saline with Tween-80
[10] = dose: 120.0 mg/kg/injection, schedule: Q01DX005 (ip), vehicle: saline with Tween-80
[11] = dose: 240.0 mg/kg/injection, schedule: Q01DX005 (ip), vehicle: saline with Tween-80
[12] = dose: 400.0 mg/kg/injection, schedule: Q04DX003 (ip), vehicle: saline with Tween-80
[13] = dose: 12.5 mg/kg/injection, schedule: Q01DX005 (ip), vehicle: Klucel (hydroxypropylcellulose) (HPC)
[14] = dose: 25.0 mg/kg/injection, schedule: Q01DX005 (ip), vehicle: Klucel (hydroxypropylcellulose) (HPC)
[15] = dose: 50.0 mg/kg/injection, schedule: Q01DX005 (ip), vehicle: Klucel (hydroxypropylcellulose) (HPC)
[16] = dose: 50.0 mg/kg/injection, schedule: Q01DX005 (ip), vehicle: saline
[17] = dose: 100.0 mg/kg/injection, schedule: Q01DX005 (ip), vehicle: saline
[18] = dose: 200.0 mg/kg/injection, schedule: Q01DX005 (ip), vehicle: saline
[19] = dose: 100.0 mg/kg/injection, schedule: Q01DX009 (ip), vehicle: Klucel (hydroxypropylcellulose) (HPC)
[20] = dose: 200.0 mg/kg/injection, schedule: Q01DX009 (ip), vehicle: Klucel (hydroxypropylcellulose) (HPC)
[21] = dose: 50.0 mg/kg/injection, schedule: Q01DX009 (ip), vehicle: Klucel (hydroxypropylcellulose) (HPC)

SMILES: CN(C)c1ccc(C(c2cc3c(cc2O)OCO3)N2CCN(C(c3ccc(N(C)C)cc3)c3cc4c(cc3O)OCO4)CC2)cc1 (stereo not drawn)
- T/C (dose: 60.0 mg/kg/injection, schedule: Q01DX005 (ip), vehicle: saline): 96 % of control
- T/C (dose: 120.0 mg/kg/injection, schedule: Q01DX005 (ip), vehicle: saline): 100 % of control
- T/C (dose: 240.0 mg/kg/injection, schedule: Q01DX005 (ip), vehicle: saline): 99 % of control

SMILES: COc1cc2cc(c1Cl)N(C)C(=O)CC(OC(=O)C(C)NC(=O)C(C)C)C1(C)OC1C(C)C1CC(O)(NC(=O)O1)C(OC)/C=C/C=C(C)C2OC (stereo not drawn)
- T/C (dose: 32.0 micrograms/kg/injection, schedule: Q01DX009 (ip), vehicle: distilled water + alcohol): 159 % of control

SMILES: O=C1CSc2nc3ccc(Br)cc3c(=O)n21
- T/C [1]: 100 % of control
- T/C [2]: 95 % of control
- T/C [3]: 111 % of control

SMILES: Cc1cc(N)c(C)c([N+](=O)[O-])c1
- T/C (dose: 50.0 mg/kg/injection, schedule: Q04DX003 (ip), vehicle: saline with Tween-80): 95 % of control
- T/C [4]: 91 % of control
- T/C [5]: 100 % of control

SMILES: CCOC(=O)C(Cc1ccccc1[N+](=O)[O-])(NC(C)=O)C(=O)OCC
- T/C [6]: 94 % of control
- T/C [7]: 93 % of control
- T/C [8]: 100 % of control
- T/C (dose: 400.0 mg/kg/injection, schedule: Q01DX009 (ip), vehicle: saline with Tween-80): 103 % of control

SMILES: C/C(=N\NC(=S)Nc1cccc(F)c1)c1ccccn1
- T/C [1]: 109 % of control
- T/C [2]: 112 % of control
- T/C [3]: 119 % of control

SMILES: O=[N+]([O-])/C=C/c1cc2ccc3ccccc3c2[nH]1
- T/C [9]: 94 % of control
- T/C [10]: 89 % of control
- T/C [11]: 102 % of control

SMILES: CCCCN(CCNc1ccc(C)c2sc3ccccc3c(=O)c12)CC(C)O (stereo not drawn)
- T/C [1]: 101 % of control
- T/C [2]: 104 % of control
- T/C [3]: 101 % of control

SMILES: NS(=O)(=O)c1cc(Br)ccc1Br
- T/C [4]: 99 % of control
- T/C [5]: 117 % of control
- T/C [12]: 117 % of control

SMILES: CC1CCC2(CC1)CC(=O)N(N1CCOCC1)C(=O)C2
- T/C (dose: 60.0 mg/kg/injection, schedule: Q01DX005 (ip), vehicle: suspension in saline): 99 % of control
- T/C (dose: 120.0 mg/kg/injection, schedule: Q01DX005 (ip), vehicle: suspension in saline): 99 % of control
- T/C (dose: 240.0 mg/kg/injection, schedule: Q01DX005 (ip), vehicle: suspension in saline): 102 % of control

SMILES: Cc1cc(C)c(C#N)c(SC(C(=O)Nc2cc(C(F)(F)F)ccc2Cl)c2ccccc2)n1 (stereo not drawn)
- T/C [13]: 90 % of control
- T/C [14]: 89 % of control
- T/C [15]: 89 % of control and 90 % of control
- T/C (dose: 100.0 mg/kg/injection, schedule: Q01DX005 (ip), vehicle: Klucel (hydroxypropylcellulose) (HPC)): 105 % of control
- T/C (dose: 200.0 mg/kg/injection, schedule: Q01DX005 (ip), vehicle: Klucel (hydroxypropylcellulose) (HPC)): 105 % of control

SMILES: CN=C(N)N/N=C(\C)c1ccc2c(c1)Cc1ccccc1-2
- T/C (dose: 25.0 mg/kg/injection, schedule: Q04DX002 (ip), vehicle: saline with Tween-80): 122 % of control

SMILES: Nc1ncnc2c(C3OC(CO)C(O)C3O)[nH]nc12 (stereo not drawn)
- T/C (dose: 1.25 mg/kg/injection, schedule: Q01DX009 (ip), vehicle: saline): 109 % of control
- T/C (dose: 2.5 mg/kg/injection, schedule: Q01DX009 (ip), vehicle: saline): 109 % of control
- T/C (dose: 5.0 mg/kg/injection, schedule: Q01DX009 (ip), vehicle: saline): 118 % of control
- T/C (dose: 5.56 mg/kg/injection, schedule: Q01DX009 (ip), vehicle: saline): 109 % of control
- T/C (dose: 6.25 mg/kg/injection, schedule: Q01DX009 (ip), vehicle: saline sonified): 104 % of control
- T/C (dose: 8.33 mg/kg/injection, schedule: Q01DX009 (ip), vehicle: saline): 90 % of control
- T/C (dose: 12.0 mg/kg/injection, schedule: Q01DX009 (ip), vehicle: saline sonified): 105 % of control
- T/C (dose: 12.5 mg/kg/injection, schedule: Q01DX009 (ip), vehicle: saline): 122 % of control
- T/C (dose: 18.7 mg/kg/injection, schedule: Q01DX009 (ip), vehicle: saline): 90 % of control

SMILES: [Se]=[Hf]=[Se]
- T/C [9]: 97 % of control
- T/C [10]: 97 % of control
- T/C [11]: 94 % of control

SMILES: NNC(=O)c1ccccc1N
- T/C (dose: 25.0 mg/kg/injection, schedule: Q01DX009 (ip), vehicle: water): 96 % of control
- T/C (dose: 50.0 mg/kg/injection, schedule: Q01DX009 (ip), vehicle: water): 96 % of control

SMILES: C=CC1C(=O)N(C)[C@H](C(C)(C)C)N1C(=O)c1ccccc1 (stereo partly drawn)
- T/C [16]: 100 % of control
- T/C [17]: 93 % of control
- T/C [18]: 113 % of control

SMILES: CCOC(OCC)c1ccc(Cl)cc1
- T/C [4]: 100 % of control
- T/C [5]: 105 % of control
- T/C [12]: 106 % of control

SMILES: CCC1SC(=S)NC1=O (stereo not drawn)
- T/C [1]: 92 % of control
- T/C [2]: 92 % of control

SMILES: O=C1OC(c2ccccc2)Sc2ccccc21 (stereo not drawn)
- T/C [19]: 99 % of control
- T/C [20]: 95 % of control
- T/C (dose: 400.0 mg/kg/injection, schedule: Q01DX009 (ip), vehicle: Klucel (hydroxypropylcellulose) (HPC)): 92 % of control

SMILES: C/C=C/c1ccccc1N/N=C(\Cl)C(=O)OCC
- T/C (dose: 3.75 mg/kg/injection, schedule: Q01DX005 (ip), vehicle: saline with Tween-80): 107 % of control
- T/C (dose: 7.5 mg/kg/injection, schedule: Q01DX005 (ip), vehicle: saline with Tween-80): 99 % of control
- T/C (dose: 12.5 mg/kg/injection, schedule: Q01DX005 (ip), vehicle: saline with Tween-80): 99 % of control
- T/C (dose: 15.0 mg/kg/injection, schedule: Q01DX005 (ip), vehicle: saline with Tween-80): 119 % of control
- T/C (dose: 25.0 mg/kg/injection, schedule: Q01DX005 (ip), vehicle: saline with Tween-80): 106 % of control
- T/C [1]: 118 % of control
- T/C [6]: 117 % of control

SMILES: CC1(C)C2CCC1(C)C(OC(=O)/C=C/c1ccc(O)c(O)c1)C2 (stereo not drawn)
- T/C (dose: 12.5 mg/kg/injection, schedule: Q01DX009 (ip), vehicle: Klucel (hydroxypropylcellulose) (HPC)): 100 % of control
- T/C (dose: 25.0 mg/kg/injection, schedule: Q01DX009 (ip), vehicle: Klucel (hydroxypropylcellulose) (HPC)): 98 % of control
- T/C [21]: 87 % of control
- T/C [19]: 97 % of control

SMILES: Cc1ccc(-c2nc3ccccc3c(=O)n2C(C)C)cc1
- T/C [6]: 100 % of control
- T/C [7]: 98 % of control
- T/C [8]: 87 % of control

SMILES: ClCC1CCN(Cc2ccccc2)CC1
- T/C [4]: 97 % of control
- T/C [5]: 100 % of control

SMILES: O=C(CCCCCCCCc1ccccc1)c1c(O)cccc1O
- T/C (dose: 6.0 mg/kg/injection, schedule: Q01DX009 (ip), vehicle: Klucel (hydroxypropylcellulose) (HPC)): 95 % of control
- T/C (dose: 12.0 mg/kg/injection, schedule: Q01DX009 (ip), vehicle: Klucel (hydroxypropylcellulose) (HPC)): 88 % of control
- T/C (dose: 24.0 mg/kg/injection, schedule: Q01DX009 (ip), vehicle: Klucel (hydroxypropylcellulose) (HPC)): 97 % of control
- T/C (dose: 48.0 mg/kg/injection, schedule: Q01DX009 (ip), vehicle: Klucel (hydroxypropylcellulose) (HPC)): 97 % of control

SMILES: CC1OC(O[C@@H]2OC=C(C=O)[C@@]3(O)CC[C@H](C)[C@@H]23)C(O)C(O)C1O (stereo partly drawn)
- T/C (dose: 6.25 mg/kg/injection, schedule: Q01DX005 (ip), vehicle: Klucel (hydroxypropylcellulose) (HPC)): 100 % of control
- T/C [13]: 116 % of control
- T/C [14]: 95 % of control
- T/C [15]: 87 % of control

SMILES: CC(C)(C)C1=CC(=CC=C2C=CN(CCCCCCCCCCCO)C=C2)C=C(C(C)(C)C)C1=O
- T/C [9]: 108 % of control
- T/C [10]: 107 % of control
- T/C [11]: 110 % of control

SMILES: Cc1nc(Br)c(Br)n1C
- T/C [9]: 93 % of control
- T/C [10]: 88 % of control

SMILES: NCP1(=O)CNC(=O)NC1
- T/C [16]: 116 % of control
- T/C [17]: 103 % of control
- T/C [18]: 113 % of control

SMILES: O=c1[nH]c2cc([N+](=O)[O-])ccc2o1
- T/C [21]: 102 % of control
- T/C [19]: 105 % of control
- T/C [20]: 105 % of control

SMILES: Cc1ccc2nc(NC(=S)NCCNC(=S)Nc3ccc4cc(C)ccc4n3)ccc2c1
- T/C [21]: 94 % of control
- T/C [19]: 92 % of control
- T/C [20]: 90 % of control
